Assay results as given in paper PMC8799644, “Decisive role of water and protein dynamics in residence time of p38α MAP kinase inhibitors” (Nature Communications, 2022).
Values joined by “and” are separate entries in the source; they are usually repeats but may differ in a detail not shown here. Identical values can stand only once. Like-named read-outs stand apart in the source and are kept apart here.

Key:
p38α MAPK [1] = target: T1, p38α MAPK (Homo sapiens, UniProt Q16539); experiment: Cell-based eGFP-MK2 translocation assay, HCT116_eGFP-MK2 cells; design: endogenous in cells
T1 sequence (Q16539 whole entry): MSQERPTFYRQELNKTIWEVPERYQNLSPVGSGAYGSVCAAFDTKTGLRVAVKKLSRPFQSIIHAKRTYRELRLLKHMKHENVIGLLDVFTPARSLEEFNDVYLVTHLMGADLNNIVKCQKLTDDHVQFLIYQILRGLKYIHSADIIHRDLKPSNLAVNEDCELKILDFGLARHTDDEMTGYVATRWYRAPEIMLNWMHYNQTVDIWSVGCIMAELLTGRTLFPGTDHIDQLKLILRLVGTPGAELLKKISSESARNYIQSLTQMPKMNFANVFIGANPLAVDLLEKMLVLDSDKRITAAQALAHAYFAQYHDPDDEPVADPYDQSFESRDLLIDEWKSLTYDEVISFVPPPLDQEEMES
From the text: For optical analysis, cells were fixed using 4% PFA/PBS following DAPI staining and subjected to automated high content analysis (HCA) image acquisition using an Image Xpress micro XL microscope (Molecular Devices). 40× Plan Apo objective was used to acquire FITC and DAPI signals at nine sites per well. MetaXpress® Custom Module Editor Software (64 bit, 6.2.3.733, Molecular Devices) was trained for automated image analysis. DAPI signal was used to define nuclear region of interest (ROI) and DAPI-negative cytoplasmic ring for respective cytoplasmic ROI. Non-cellular FITC background signals were subtracted from defined ROIs. Nuclear to cytoplasmic ratios were calculated from cellular fluorescence intensities of eGFP-MK2 reporter within defined ROIs. Cells with ratios within the 10–90 percentiles of all measured cells were taken into account. […]
(§1) Supplementary Figure 2. Cell-based eGFP-MK2 translocation assay: HCT116 cell line.
(A) Human HCT116 cell line stably expressing eGFP-MK2 reporter under different treatment […]
nucleus. Upon activation of the MAPK/p38 pathway, eGFP-MK2 is translocated to the cytoplasm […]
microscopic images which were subjected to automated high content analysis to measure and calculate nuclear to cytoplasmic ratios of eGFP-MK2 signals providing the basis to evaluate inhibitory potency of p38a MAPK modulating compounds. […]
sites that were imaged per condition for each of 3 independent biological replicates. Scale bar:
Normalized fluorescence (Fl) intensity ratio of nucleus/cytoplasm.
Data are presented as mean ± SD of three biological replicates. […]

p38α MAPK [2] = target: T1, p38α MAPK; experiment: Fluorescence polarization (Transcreener ADP) jump-dilution target residence time; type: biochemical; conditions: for millipolarization mP: Compound 1 run, replicas 1-3
p38α MAP kinase = p38α MAP kinase (Homo sapiens, UniProt Q16539); experiment: ADP-Glo luminescence kinase assay (isolated enzyme); type: biochemical
Sequence of p38α MAP kinase (Q16539 whole entry): as above
Method: IC50 determinations were performed using the luminescence-based ADP-Glo^TM assay by Promega, which measures kinase activity based on ADP formation. All required reagents were prepared according to manufacturer’s protocol. […] The kinase reaction was started by adding the substrate and ATP. After 60 min incubation time, the reaction was terminated by adding ADP-Glo^TM reagent and an incubation time of 60 min. At last, ADP-Glo TM kinase detection reagent was added and incubated for 30 min. All reactions were carried out on a plate shaker at room temperature. […] The ratio between kinase reaction, ADP-Glo TM reagent and ADP-Glo TM kinase detection reagent was 1:1:2. The positive control consisted of p38α MAP kinase, substrate and buffer. The assay was performed in triplicates. The negative control consisted of all kinase reaction components without enzyme. Luminescence was detected using the plate reader FilterMax F5 by Molecular Devices with subsequent data analysis using GraphPad Prism version 7.0.0. for Windows (GraphPad Software, San Diego, CA, USA).

p38α MAPK [3] = target: T1, p38α MAPK; experiment: HotSpot radiometric kinase assay (Reaction Biology); type: biochemical; conditions: n = 1; 10 μM ATP; read-out: IC50 isolated enzyme p38α MAPK HotSpot
Method: Hotspot^TM radiometric assay[49] was conducted by Reaction Biology (Reaction Biology Corp., Malvern, PA, USA). In brief, five-dose singleton measurements were conducted starting from 1 μM compound concentration with a ten-fold serial dilution (lowest concentration of 0.1 nM). ATP concentration of 10 μM was used in the assay.

p38α MAPK [4] = target: T1, p38α MAPK; conditions: n = 2; cited from earlier work
p38α MAPK [5] = target: T1, p38α MAPK; experiment: Cell-based eGFP-MK2 translocation assay, DLD1_eGFP-MK2 cells; design: endogenous in cells
From the text: For optical analysis, cells were fixed using 4% PFA/PBS following DAPI staining and subjected to automated high content analysis (HCA) image acquisition using an Image Xpress micro XL microscope (Molecular Devices). 40× Plan Apo objective was used to acquire FITC and DAPI signals at nine sites per well. MetaXpress® Custom Module Editor Software (64 bit, 6.2.3.733, Molecular Devices) was trained for automated image analysis. DAPI signal was used to define nuclear region of interest (ROI) and DAPI-negative cytoplasmic ring for respective cytoplasmic ROI. Non-cellular FITC background signals were subtracted from defined ROIs. Nuclear to cytoplasmic ratios were calculated from cellular fluorescence intensities of eGFP-MK2 reporter within defined ROIs. Cells with ratios within the 10–90 percentiles of all measured cells were taken into account.
Supplementary Figure 1. Cell-based eGFP-MK2 translocation assay: DLD1 cell line.
(A) Schematic overview of the cell-based eGFP-MK2 translocation assay. Active p38a MAPK phosphorylates its nuclear substrate MapKap2 (MK2) which leads to the exposure of the nuclear export signal and results in a cytoplasmic relocalization of MK2. Using a fluorescently labelled eGFP-MK2 as reporter, nuclear-cytoplasmic translocation can be used to monitor p38a MAPK […]
(B) Human DLD1 cell line stably […]
expressing eGFP-MK2 reporter under different treatment conditions.
(1 picture or pasted object on this page, not shown here)
Shown are microscopic images which were subjected to automated high content analysis to measure and calculate nuclear to cytoplasmic ratios of eGFP-MK2 signals providing the basis to evaluate inhibitory potency of p38a MAPK modulating […]
3 independent biological replicates. Scale bar: 50 µm. (C) Inhibition of eGFP-MK2 translocation by the compounds in DLD1_eGFP-MK2 cells. Normalized fluorescence (Fl) intensity ratio of […]
respectively. […] Data are presented as mean ± standard deviation (SD) of three biological replicates. Source data are provided as a Source Data […]
as §1
(A) Human HCT116 cell line stably expressing eGFP-MK2 reporter under different treatment

p38α MAPK [6] = target: T1, p38α MAPK; conditions: cited from earlier work

## O=C(NCCN1CCOCC1)c1ccc2c(c1)C(=O)c1ccc(Nc3ccc(F)cc3F)cc1CC2 [Compound 1]
p38α MAPK [1]; HCT116_eGFP-MK2, conc. 100 pM
  norm. FI (nucleus/ cytoplasm): 0.8572
p38α MAPK [1]; HCT116_eGFP-MK2, conc. 1e-9 M
  norm. FI (nucleus/ cytoplasm): 0.8754
p38α MAPK [1]; HCT116_eGFP-MK2, conc. 3e-9 M
  norm. FI (nucleus/ cytoplasm): 0.8746
p38α MAPK [1]; HCT116_eGFP-MK2, conc. 1e-8 M
  norm. FI (nucleus/ cytoplasm): 0.937
p38α MAPK [1]; HCT116_eGFP-MK2, conc. 3e-8 M
  norm. FI (nucleus/ cytoplasm): 0.9809
p38α MAPK [1]; HCT116_eGFP-MK2, conc. 1e-7 M
  norm. FI (nucleus/ cytoplasm): 1.0322
p38α MAPK [1]; HCT116_eGFP-MK2, conc. 1e-6 M
  norm. FI (nucleus/ cytoplasm): 1.03
p38α MAPK [1]; HCT116_eGFP-MK2, conc. 1e-5 M
  norm. FI (nucleus/ cytoplasm): 1.052
p38α MAPK [1]; HCT116_eGFP-MK2, conc. 1e-5 M (last column, after 1e-10)
  norm. FI (nucleus/ cytoplasm): 0.8753
p38α MAPK [1]; HCT116_eGFP-MK2 cells, 1 h compound, n = 3, read-out: IC50 cell-based MK2 translocation HCT116
  IC50: 14.9 nM
p38α MAPK [2]; Time 15 min
  millipolarization mP: 250.23 mP and 238.61 mP and 252.02 mP
p38α MAPK [2]; Time 20 min
  millipolarization mP: 235.80 mP and 229.96 mP and 227.02 mP
p38α MAPK [2]; Time 25 min
  millipolarization mP: 216.96 mP and 215.61 mP and 220.53 mP
p38α MAPK [2]; Time 30 min
  millipolarization mP: 204.83 mP and 208.80 mP and 213.25 mP
p38α MAPK [2]; Time 35 min
  millipolarization mP: 199.40 mP and 197.40 mP and 204.19 mP
p38α MAPK [2]; Time 40 min
  millipolarization mP: 190.24 mP and 185.07 mP and 187.77 mP
p38α MAPK [2]; Time 45 min
  millipolarization mP: 188.70 mP and 189.13 mP and 187.22 mP
p38α MAPK [2]; Time 50 min
  millipolarization mP: 189.84 mP and 186.39 mP and 191.23 mP
p38α MAPK [2]; Time 55 min
  millipolarization mP: 181.96 mP and 176.31 mP and 180.38 mP
p38α MAPK [2]; Time 60 min
  millipolarization mP: 189.85 mP and 181.69 mP and 188.39 mP
p38α MAPK [2]; Time 65 min
  millipolarization mP: 179.72 mP and 178.04 mP and 185.39 mP
p38α MAPK [2]; Time 70 min
  millipolarization mP: 177.53 mP and 176.90 mP and 187.97 mP
p38α MAPK [2]; Time 75 min
  millipolarization mP: 176.40 mP and 178.56 mP and 178.94 mP
p38α MAPK [2]; Time 80 min
  millipolarization mP: 170.47 mP and 176.86 mP and 179.41 mP
p38α MAPK [2]; Time 85 min
  millipolarization mP: 174.74 mP and 171.47 mP and 178.98 mP
p38α MAPK [2]; Time 90 min
  millipolarization mP: 181.04 mP and 173.23 mP and 180.81 mP
p38α MAPK [2]; Time 95 min
  millipolarization mP: 176.14 mP and 169.30 mP and 175.95 mP
p38α MAPK [2]; Time 100 min
  millipolarization mP: 170.48 mP and 168.26 mP and 169.78 mP
p38α MAPK [2]; Time 105 min
  millipolarization mP: 171.74 mP and 175.00 mP and 171.83 mP
p38α MAPK [2]; Time 110 min
  millipolarization mP: 170.01 mP and 167.74 mP and 170.08 mP
p38α MAPK [2]; Time 115 min
  millipolarization mP: 166.92 mP and 166.97 mP and 168.10 mP
p38α MAPK [2]; Time 120 min
  millipolarization mP: 173.62 mP and 170.72 mP and 174.62 mP
p38α MAPK [2]; Time 125 min
  millipolarization mP: 170.41 mP and 162.47 mP and 172.42 mP
p38α MAPK [2]; Time 130 min
  millipolarization mP: 163.64 mP and 172.89 mP and 166.09 mP
p38α MAPK [2]; Time 135 min
  millipolarization mP: 165.07 mP and 173.17 mP and 167.48 mP
p38α MAPK [2]; Time 140 min
  millipolarization mP: 163.17 mP and 162.11 mP and 161.18 mP
p38α MAPK [2]; Time 145 min
  millipolarization mP: 163.48 mP and 161.58 mP and 158.43 mP
p38α MAPK [2]; Time 150 min
  millipolarization mP: 162.36 mP and 163.56 mP and 167.43 mP
p38α MAPK [2]; Time 155 min
  millipolarization mP: 167.52 mP and 168.31 mP and 165.22 mP
p38α MAPK [2]; Time 160 min
  millipolarization mP: 157.97 mP and 163.71 mP and 167.13 mP
p38α MAPK [2]; Time 170 min
  millipolarization mP: 171.90 mP and 157.15 mP and 163.48 mP
p38α MAPK [2]; Time 175 min
  millipolarization mP: 163.57 mP and 163.80 mP and 163.61 mP
p38α MAPK [2]; Time 180 min
  millipolarization mP: 166.27 mP
p38α MAPK [2]; individual replicas 1-3
  TRT: 317 s and 109 s and 270 s
p38α MAPK [2]; mean of 3 replicas
  TRT [sec] mean: 232 s
p38α MAPK [2]; mean ± SD, n = 3, 1/koff, jump dilution 1:100, 40 μM ATP, ATF2, read-out: Target residence time FP (converted)
  residence time: 3.87 min
p38α MAP kinase; mean ± SD, 150 μM ATP, read-out: IC50 isolated enzyme p38α MAPK ADP-Glo (mean)
  IC50: 31.3 nM and 31 nM
p38α MAP kinase; single experiments of source data, read-out: IC50 ADP Glo, individual determination
  IC50: 35 nM and 40 nM and 19 nM
p38α MAPK [3]
  IC50: < 1 nM
p38α MAPK [4]
  Target residence time SPR: 36 s
p38α MAPK [5]; DLD1_eGFP-MK2, conc. 100 pM
  norm. FI (nucleus/ cytoplasm): 0.794
p38α MAPK [5]; DLD1_eGFP-MK2, conc. 1e-9 M
  norm. FI (nucleus/ cytoplasm): 0.8106
p38α MAPK [5]; DLD1_eGFP-MK2, conc. 3e-9 M
  norm. FI (nucleus/ cytoplasm): 0.8345
p38α MAPK [5]; DLD1_eGFP-MK2, conc. 3e-8 M
  norm. FI (nucleus/ cytoplasm): 0.9192
p38α MAPK [5]; DLD1_eGFP-MK2, conc. 1e-7 M
  norm. FI (nucleus/ cytoplasm): 0.9569
p38α MAPK [5]; DLD1_eGFP-MK2, conc. 1e-6 M
  norm. FI (nucleus/ cytoplasm): 1.002
p38α MAPK [5]; DLD1_eGFP-MK2, conc. 1e-5 M
  norm. FI (nucleus/ cytoplasm): 1.014
p38α MAPK [5]; DLD1_eGFP-MK2, conc. 1e-5 M (last column, after 1e-10)
  norm. FI (nucleus/ cytoplasm): 0.8162
p38α MAPK [5]; DLD1_eGFP-MK2 cells, 1 h compound, n = 3, read-out: IC50 cell-based MK2 translocation DLD1
  IC50: 25.6 nM
p38α MAPK [6]; mean ± SD, n = 3, read-out: IC50 isolated enzyme p38α MAPK ELISA (mean)
  IC50: 3.4 nM and 3.35 nM
p38α MAPK [6]; single experiments of source data, read-out: IC50 ELISA, individual determination
  IC50: 3.54 nM and 3.5 nM
